Series [1] relates to T. ni JHE. Kind of series: removal of inhibitor by dialysis (reversibility of inhibition). The format is biochemical, Trichoplusia ni. Conditions: for enzyme activity after dialysis: 48 hours after starting the dialysis.
Series [2] relates to T. ni JHE. Kind of series: in vivo inhibition of T. ni JHE after topical application. As to conditions: for maximum percent inhibition obtainable after treatment / selectivity for JHE in vivo: compared with EPPAT; for time of maximum inhibition of T. ni JHE after topical application: single dose 0.1μ moles/larve. Set-up: species or system Trichoplusia ni. Here is the method: (§1) Larvae were treated on the dorsum of the thorax with 1 or 2μ liters of ethanol (control) and with 1 or 2μ liters, respectively, of 10^-1 M TFT, TFPOS, DTFT or EPPAT in ethanol, 3 times per day at 4, 12 and 17 h ALO (after lights on) on L5Dl and D2. Time of pupation was checked daily at 4 h ALO, and emergence was checked 2 weeks after treatment. L5Dl larvae 4 h ALO were also treated, but only once with 1μ liter ethanol or with 1μ liter of 10-1 M TFT, TFPOS, or EPPAT in ethanol, and then were bled at 1, 8, 12, 23, 28, or 32 h after treatment. Hemolymph was collected from five larvae, mixed and frozen at -60° C. until assayed for JHE and α-NAE activity. […] Death usually occured during the larval-pupal transformation, with the control mortality at 2μ liters of ethanol being 1%, TFT at 0.2M being 6%, an TFPOS being 4%.
In another study, the in vivo inhibition of T. ni JHE following a single dose (0.1μ moles/larve) of EPPAT and TFPOS respectively was monitored. Maximum inhibition of T. ni JHE was obtained one hour after topical application for each.

Series [3] has as its target JH esterase. Kind of series: JH esterase inhibition in T. ni hemolymph. As to conditions: for IC50: diluted T. ni larval plasma, 10 min preincubation at 30° C., 5×10^-6 M JH III, read-out: I50 (M) JHE. The format is biochemical, Trichoplusia ni. As to the method:
JH esterase activity was monitored in the hemolymph collected from last stadium day two larvae of the cabbage looper, Trichoplusia ni, Lepidoptera, Noctuidae. The plasma was diluted (v/v) in sodium phosphate buffer (pH 7.4, 0.08M with 0.01% [w/v] phenyulthiourea) and frozen at -60° C. until used. The inventive compounds were added in 1μ liter of ethanol to 100μ liters of the diluted plasma and preincubated for 10 min at 30° C. before adding substrate (ClO^3 H JH III New England Nuclear and unlabeled E, E JH III, Calbiochem) in 1μ liter of ethanol to give a final concentration of 5×10^-6 M JH III containing about 30,000 dpm/assay (Hammock and Sparks, Anal. Biochem. 82, 573 (1977).
(§2) In each case, at least three replicates of each inhibitor concentration were used. A minimum of two inhibitor concentrations showing greater and less than 50% inhibition were used to determine the I50 values from semilog plots except in the case of weaker inhibitors. Only those points on the apparently linear portion of the curve were used to calculate the I50 's.

Series [4] relates to T. ni larvae. Kind of series: mortality of T. ni larvae after repeated topical applications. The format is in vivo, Trichoplusia ni. Here is the method: (§3) T. ni larvae are treated with 1 or 2μ liters of ethanol, with TFPOS, wit o-ethyl-S-phenyl phosphoramidothiolate (EPPAT), or with 1,1,1-trifluorotetradecan-2-one (TFT) in 1×10^-1 M ethanol solutions on the dorsum of the thorax three times per day (4, 12 and 17 hr after lights on) during the first two days of the last larval stadium. The insects were held under standard rearing conditions (27° C., 14 hr light, 10 hr dark). The time of pupation was checked daily at 4 hr after lights on and the pupae were checked for successful emergence two weeks later.
as §1

Series [5] deals with T1, Type VI-S electric eel AChE (Electrophorus electricus, UniProt O42275).
T1 construct: purchased Sigma Type VI-S
T1 sequence (O42275 24-633): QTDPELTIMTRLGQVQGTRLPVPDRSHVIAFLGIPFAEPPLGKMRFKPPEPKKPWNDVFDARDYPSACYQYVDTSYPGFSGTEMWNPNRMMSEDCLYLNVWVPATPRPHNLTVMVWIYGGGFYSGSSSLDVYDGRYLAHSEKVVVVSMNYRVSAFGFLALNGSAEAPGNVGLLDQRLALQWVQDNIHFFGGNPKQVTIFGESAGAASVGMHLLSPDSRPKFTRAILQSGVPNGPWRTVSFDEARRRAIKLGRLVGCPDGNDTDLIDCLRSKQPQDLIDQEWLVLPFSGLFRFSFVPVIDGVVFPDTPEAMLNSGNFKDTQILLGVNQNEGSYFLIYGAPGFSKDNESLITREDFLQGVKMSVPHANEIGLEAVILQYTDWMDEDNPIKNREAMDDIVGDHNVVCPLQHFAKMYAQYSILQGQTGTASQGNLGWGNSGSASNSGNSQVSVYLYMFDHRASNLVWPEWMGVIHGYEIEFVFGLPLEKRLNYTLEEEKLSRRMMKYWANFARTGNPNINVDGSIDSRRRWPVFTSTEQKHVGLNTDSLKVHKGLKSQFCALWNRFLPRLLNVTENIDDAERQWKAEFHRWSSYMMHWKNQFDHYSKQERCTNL
Kind of series: acetylcholinesterase (AChE) activity. The format is biochemical. As to the method: For acetylcholinesterase (AChE) activity, 20μ liters of acetylthiocholine iodide (Sigma) in sodium phosphate buffer (0.05M, ph 7.2) was added to Type VI-S electric eel AChE (Sigma, 10 ng with 2-400 units/mg protein) in 3 ml the same buffer to give a final substrate concentration of 5×10^-4 M. The assay was run at 37° C.
(§4) For AChE, trypsin and α-ChT, the inhibitor was added to ethanol 10 min prior to the substrate and preincubated at the same temperature used for the actual assay. In no case was greater than 1% v/v ethanol added, and ethanol controls were always run. For the spectrophotometric enzyme assays, initial studies were run on a Varian-Cary 219 UV/visible spectrophotometer, while subsequent assays were run on a Gilford manual EIA reading using disposable cuvettes.
as §2

The test system of a further series is α-NAE. Nature of the series: α-Naphtyl acetate (α-NA) hydrolysis in T. ni prepupal hemolymph. The format is biochemical, Trichoplusia ni. Conditions: hemolymph of T. ni prepupae, substrate 2.3×10^-4 M; read-out: I50 (M) α-NAE. As to the method:
α-Naphtyl acetate (α-NA) hydrolysis was monitored similarly in the hemolymph of prepupae of T. ni (fifth stadium, day 4) with a final substrate of 2.3×10^-4 M. Plasma dilutions and incubation times were chosen to give a hydrolysis rate which was linear with time.
as §2

For series [6], the system named is T. ni larvae. Nature of the series: topical treatment of T. ni larvae, time of pupation. Conditions: for delay of pupation versus ethanol controls: 0.1 and 0.2μ mole per application, 3 times per day, L5D1 and D2, topical; for delay of pupation: topical. The format is in vivo, Trichoplusia ni. As to the method:
as §3, §1

Series [7] has as its target T2, bovine pancreatic type III trypsin (Bos taurus, UniProt P00760).
T2 construct: purchased Sigma type III
T2 sequence (P00760 24-246): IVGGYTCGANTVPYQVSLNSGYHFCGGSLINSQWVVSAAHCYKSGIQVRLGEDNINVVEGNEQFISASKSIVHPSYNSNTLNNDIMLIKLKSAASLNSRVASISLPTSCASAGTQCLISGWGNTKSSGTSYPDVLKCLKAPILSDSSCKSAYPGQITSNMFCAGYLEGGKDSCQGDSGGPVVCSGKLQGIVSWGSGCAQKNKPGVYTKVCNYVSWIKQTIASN
Nature of the series: trypsin activity. The format is biochemical. As to the method: For trypsin, 1.5 ml of p-toluenesulfonyl-L-arginine methyl ester (Sigma) in Tris HCl buffer (pH 8.1, 0.04M with 0.1M CaCl2) was added to 1.5 ml of the same buffer containing bovine pancreatic type III trypsin (Sigma, 0.24 μg) to give a final substrate concentration of 1×10^-4 M. The assay was performed at 25° C.
as §4, §2

In another series the test system is clofibrate esterase. Kind of series: hydrolysis of clofibrate by microsomal protein. The format is biochemical, human. From the text: The drug clofibrate (α-[4-chlorophenoxy)-α-methylpropionate; Atromid-S) is one of a class of compounds given to heart patients as a hypolipidemic agent.
Series [8] concerns JH esterase. Conditions: crude juvenile hormone esterase from the cabbage looper; cited from earlier work.
For series [9], the system named is T. ni larvae. As to conditions: cited from earlier work.
The mark [10] stands for this setting: acetylthiocholine iodide 5×10^-4 M, 37° C., * = greater than, read-out: I50 (M) AChE.
[11] abbreviates: p-toluenesulfonyl-L-arginine methyl ester 1×10^-4 M, 25° C., read-out: I50 (M) Trypsin (*greater than).

The structures appear in SMILES notation. “Also recorded” adds a separate entry of the source. Like-named read-outs stand apart in the source and are kept apart here.

This is an account of results in patent US4562292A, “Trifluoromethylketone sulfides and reversible enzyme inhibition therewith” (priority 1983, dated 1985).

Broadly, the mortality is the share of the test organisms that died. Read a high mortality as fewer survivors.

Take `CCCCCCCCSCC(=O)C(F)(F)F` [Compound 1, 1,1,1-Trifluoro-3-thioocytylpropan-2-one]: the “enzyme activity after dialysis” value in the series on T. ni JHE [1] was “restored gradually to the same activity as in the uninhibited enzyme”. Also, in the series on T. ni JHE [1] (dialysis), the t0.5 of reactivation entry is “more than 20 hours” and the “type of inhibition of T. ni JHE” value was “reversible inhibitors”. For the same compound, in the series on T. ni JHE [2], the “maximum percent inhibition obtainable after treatment” value is recorded as “as effective”, the “selectivity for JHE in vivo” value is given as “more selective for JHE in vivo than EPPAT” and the “time of maximum inhibition of T. ni JHE after topical application” value is “one”. Besides, at JH esterase [3] (in words), the “inhibition I50 value, juvenile hormone esterases” value was “nanomolar range”. Besides, the “times more active in vitro for juvenile hormone esterase than TFT” value in the series on JH esterase [3] (versus TFT) is recorded as “over 40 times”. Moreover, in the series with T. ni larvae [4] (Trichoplusia, topical, repeated applications of 2μ liters (0.2 moles/application), Example VIII), the mortality at 0.2 µmol/application was 4%. Further, in the series on T. ni larvae [4] (repeated 1μ liter applications of 1×10^-1 M solution), the mortality entry is recorded as “No mortality”. Also, in [5] (setting [10]), the IC50 is 2.3e-06 M. Also, the IC50 with α-NAE came out at 1.2e-06 M. Also, in the series on T. ni larvae [6] (listed as TFPOS), the “delay of pupation versus ethanol controls” value is on record as “pupation was delayed with respect to the controls in a dose-dependent manner”. Also, the delay of pupation entry in the series with T. ni larvae [6] (0.2μ moles/application) is reported as “more dramatic”. Besides, the in vivo activity entry with T. ni larvae [6] (in vivo) is recorded as “pronounced in vivo activity”. Also, the delay of pupation result in the series on T. ni larvae [6] (repeated doses of 0.1μ moles, first two days of last larval stadium) is “effective in delaying the pupation”. Moreover, the IC50 in series [7] (setting [11]) is more than 1e-05 M.
Regarding `CCCCCCCCCSCC(=O)C(F)(F)F` [Compound 2], the IC50 is 3.7e-09 M on JH esterase [3], 9.3e-07 M in [5] (setting [10]), 6.3e-06 M in the series with α-NAE and more than 0.0001 M in series [7] (setting [11]).
For the compound `CCCCCCCCCCSCC(=O)C(F)(F)F` [Compound 3], the IC50 on JH esterase [3] turned out to be 2e-08 M; in series [5] (setting [10]), 3.2e-06 M; in the series with α-NAE, 1e-05 M; in series [7] (setting [11]), 8.2e-05 M.
Turning to `CCCCCCCCCCCSCC(=O)C(F)(F)F` [Compound 4], the IC50 is 4.3e-08 M on JH esterase [3], 2.6e-06 M in series [5] (setting [10]), 4.5e-05 M with α-NAE and more than 0.0001 M in [7] (setting [11]).
On the same counts, the results for `CCCCCCCCCCCCSCC(=O)C(F)(F)F` [Compound 5] are 1.5e-08 M, 2.2e-06 M, 9.7e-05 M and more than 0.0001 M.
On the same counts, the results for `O=C(CSC1CCCCC1)C(F)(F)F` [Compound 6] are 5.2e-06 M, 1.8e-06 M, 7.1e-07 M and more than 0.0001 M.
On the same counts, the results for `Cc1ccccc1SCC(=O)C(F)(F)F` [Compound 9] are 4.3e-06 M, 3.7e-07 M, 6e-07 M and 8.5e-05 M.
As to `Cc1ccc(SCC(=O)C(F)(F)F)cc1` [Compound 11], the IC50 on JH esterase [3] is 1.1e-07 M; in series [5] (setting [10]) it was 6.1e-07 M; with α-NAE it was 1.6e-06 M; in series [7] (setting [11]) it was more than 0.0001 M.
On to `CC(C)c1ccccc1SCC(=O)C(F)(F)F` [Compound 12], for which the IC50 at JH esterase [3] amounted to 3.4e-07 M; in series [5] (setting [10]), 4.9e-08 M; with α-NAE, 2.7e-07 M; in series [7] (setting [11]), 4.7e-05 M.
Regarding `O=C(CSc1ccc(Cl)cc1)C(F)(F)F` [Compound 19], the Wilkinson kinetics entry with clofibrate esterase (clofibrate hydrolysis) is “curves expected for a slowly reversible inhibitor”. Also, in the series with clofibrate esterase (low concentrations, Vm 104 nmol/min mg microsomal protein, Km 5.5 mM, ethanol release), the “effect on hydrolysis of clofibrate” value is “significant delay in reacting maximal velocity”.
As to `O=C(CSc1ccc(Br)cc1)C(F)(F)F` [Compound 20], the IC50 is 4.1e-07 M at JH esterase [3], 2.4e-06 M in series [5] (setting [10]), 4.9e-06 M with α-NAE and more than 1e-05 M in [7] (setting [11]).
Consider `CC(C)=CCC/C(C)=C/CCSCC(=O)C(F)(F)F` [Compound 31, (E)-8,12-dimethyl-4-thia-1,1,1-trifluorotrideca-7,11-dien-2-one], for which the “maximum percent inhibition obtainable after treatment” value with T. ni JHE [2] was “as effective”. In addition, in the series on T. ni JHE [2], the “selectivity for JHE in vivo” value is reported as “more selective for JHE in vivo than EPPAT”. Further, the IC50 at JH esterase [3] is 3.2e-09 M; in [5] (setting [10]), 6.2e-05 M; with α-NAE, 7.2e-07 M; in [7] (setting [11]) it was more than 0.0001 M. Further, the “delay of pupation versus ethanol controls” value with T. ni larvae [6] (listed as DTFT) is reported as “pupation was delayed with respect to the controls in a dose-dependent manner”.
Consider `COC(C)(C)CCC/C(C)=C/CCSCC(=O)C(F)(F)F` [Compound 32, (E)-8,12-Dimethyl-12-methoxy-4-Thia-1,1,1-trifluorotridec-7-en-2-one], for which the IC50 at JH esterase [3] is 3.1e-09 M; in series [5] it was more than 0.0001 M; with α-NAE, 1.9e-06 M; in [7], more than 0.0001 M.
With `CCOP(N)(=O)Sc1ccccc1` (stereo not shown) [EPPAT, O-ethyl-S-phenyl phosphoramidothiolate, reference compound], the “in vitro inhibition of juvenile hormone esterase (literature)” value in the series with JH esterase [8] is on record as “potent in vitro inhibition of juvenile hormone esterase”. The “enzyme activity after dialysis” value with T. ni JHE [1] is reported as “almost complete loss of enzyme activity”. Moreover, in the series with T. ni JHE [1] (dialysis), the “type of inhibition of T. ni JHE” value is given as “irreversible inhibitor”. Further, the “persistence of in vivo inhibition” value in the series on T. ni JHE [2] (compared with TFPOS and DTFT) is “more persistent”. Also, the “time of maximum inhibition of T. ni JHE after topical application” value in the series on T. ni JHE [2] is given as “one”. In the series on T. ni larvae [9], the “in vivo activity, topical application to cabbage looper (literature)” value is “disrupt development of the cabbage looper”. Further, in the series with T. ni larvae [6], the “delay of pupation versus ethanol controls” value is recorded as “delayed preparation at both doses; also recorded: pupation was delayed with respect to the controls in a dose-dependent manner”.
